Paper PMC6172068 (Cancer Science, 2018)

How the values were obtained:
[1] = Plasma pharmacokinetics after single and multiple doses; assay type: in vivo, Japanese patients
Urine pharmacokinetics = assay type: in vivo, Japanese patients
[2] = 12-lead electrocardiogram QT interval; assay type: in vivo, Japanese patients
[3] = system: relapsed/refractory (R/R) AML; details: cited from earlier work
FLT3 = details: preclinical studies; cited from earlier work
AXL = details: preclinical studies; cited from earlier work
[4] = system: anaplastic lymphoma kinase; details: preclinical studies; cited from earlier work
[5] = system: leukocyte receptor tyrosine kinase; details: preclinical studies; cited from earlier work
[6] = system: FLT3 receptors expressing FLT3-ITD; details: leukemic cells; cited from earlier work
[7] = system: FLT3 receptors expressing FLT3-TKD D835 mutations; details: leukemic cells; cited from earlier work
[8] = system: FLT3 receptors expressing F691 gatekeeper mutations; details: leukemic cells; cited from earlier work
c-Kit = details: cited from earlier work
[9] = one patient who received 20 mg/d

CCc1nc(C(N)=O)c(Nc2ccc(N3CCC(N4CCN(C)CC4)CC3)c(OC)c2)nc1NC1CCOCC1 [gilteritinib]
accumulation relative to baseline ([1]; after multiple dose administration): ~8 fold | half-life ([1]; human, plasma, oral): 84 to 126 h | Tmax ([1]; human, plasma, oral, Median tmax, after administration of single or multiple doses): 3 to 7 h | achievement of steady-state gilteritinib plasma concentrations (mean trough concentrations) ([1]; once-daily dosing, Day 1 Cycle 1 through Day 1 Cycle 2): by Day 15 Cycle 1 | exposure versus dose ([1]; single-dose and multiple-dose): increased in a dose‐proportional manner | mean percentage of unchanged excreted gilteritinib (urine) (Urine pharmacokinetics; after a single dose (data not shown)): ≤ 3.6% | mean percentage of unchanged excreted gilteritinib (urine) (Urine pharmacokinetics; after multiple doses): ≤ 13.1% | possible treatment-related prolongation of the QTcF interval ([2]; 1 patient, 40 mg/d dose cohort): 4.2% | prolonged QT interval identified as an AE ([2]; 2 patients (20 mg/d and 40 mg/d)): 8.3% | patients with maximum QTcF change of >30 ms ([2]; 5 of 22 evaluable patients): 22.7% | patients with prolonged QT interval of >450 ms (QTcF) ([2]; 9 of 24 patients): 37.5% | maximum postbaseline QTcF change from baseline [2, 9]: 65 ms | mean maximum postbaseline QTcF [2, 9]: 486 ms | median OS duration ([3]; doses ≥80 mg/d): 31 weeks | overall response rate (ORR) ([3]; doses ≥80 mg/d): 52% | maximum tolerated dose (MTD) ([3]; once-daily oral, R/R AML, USA, Germany and Italy): 300 mg/day | inhibition of FLT3 (FLT3): robust inhibitor | inhibition of AXL (AXL): robust inhibitor | inhibition of anaplastic lymphoma kinase [4]: robust inhibitor | inhibition of leukocyte receptor tyrosine kinase [5]: robust inhibitor | inhibition of FLT3 receptors expressing FLT3-ITD [6]: strongly inhibited | inhibition of FLT3 receptors expressing FLT3-TKD D835 mutations [7]: strongly inhibited | inhibition of FLT3 receptors expressing F691 gatekeeper mutations [8]: weak inhibitor | inhibitory effect on c-Kit (c-Kit): minimal inhibitory effect
